According to patent publication US4322528A (priority 1979, dated 1982):
Like-named read-outs stand apart in the source and are kept apart here.

Key:
Test in all cases: whole plant or invertebrate
Housefly Larvae = conditions: Musca domestica, soil, 168 h
[1] = system: Parathion-resistant Two-spotted Spider Mite Egg; conditions: Tetranychus urticae, foliar, read-out: Parathion-resistant Two-spotted Spider Mite, Egg, % control @ ppm
Cabbage Looper Larvae = conditions: Trichoplusia ni, foliar, read-out: Cabbage Looper Larvae, Leaf Feed, % control @ ppm
Housefly Adult = conditions: Musca domestica, read-out: Housefly Adult, Contact Spray, % control @ ppm
[2] = system: Hock Colorado Potato Beetle 2nd Stg. Larva; conditions: Leptinotarsa decemlineata, foliar, read-out: Hock Colorado Potato Beetle 2nd Stg. Larva, Leaf Feed, % control @ ppm
Tobacco Budworm Larvae = conditions: Heliothis virescens, foliar, read-out: Tobacco Budworm Larvae, Leaf Feed, % control @ ppm
[3] = read-out: 7-Day Exposure Housefly Larvae Treatment, % control, C @ ppm (second sub-column)
[4] = read-out: 7-Day Exposure Housefly Larvae Treatment, % control @ ppm

Compound	mortality at 40 ppm (Housefly Larvae; [3]) [%]	mortality at 40 ppm [1] [%]	mortality at 500 ppm (Cabbage Looper Larvae) [%]	mortality at 100 ppm (Housefly Adult) [%]	mortality at 40 ppm (Housefly Larvae; [4]) [%]	mortality at 500 ppm [2] [%]	mortality at 500 ppm (Tobacco Budworm Larvae) [%]
CCOP(=S)(OCC)Oc1cc(C)nc(C(C)C)n1 [Diazinon, reference compound]	37						
ClC1=NC(Cl)(Cl)C2(Cl)C3CC(C(Cl)C3Cl)C12Cl (centres unmarked) [Ex. 3, 4-aza-2,3,5,5,6,8,9-heptachlorotricyclo[5.2.1.0^2.6]dec-3-ene]	67	31	26	83			
ClC1=C(Cl)C2(Cl)C(c3ccccc3)CN1C2(Cl)Cl (centres unmarked) [Ex. 4, 1-aza-5-phenyl-2,3,4,7,7-pentachlorobicyclo[2.2.1]-2-heptene]		77		10	43	50	66
ClC1=C(Cl)C2(Cl)C3c4ccccc4CC3N1C2(Cl)Cl (centres unmarked) [Ex. 5, 1-aza-4,5-benzo-7,8,9,10,10-pentachlorotricyclo[5.2.1.0^2.6]-8-decene]		13		42	47		6
